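Test compounds were applied to cells in 96-well plates for 48 hours at 5 doses. TGI is the concentration that stops growth completely.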
Columns and labels:
Test in all cases: DTP human tumour cell line panel, 48 h
786-0 renal = tested on: 786-0 renal
A498 renal = tested on: A498 renal
A549 NSCLC = tested on: A549 NSCLC
ACHN renal = tested on: ACHN renal
BT-549 breast = tested on: BT-549 breast
CAKI-1 renal = tested on: CAKI-1 renal
CCRF-CEM leukemia = tested on: CCRF-CEM leukemia
COLO 205 colon = tested on: COLO 205 colon
DU-145 prostate = tested on: DU-145 prostate
EKVX NSCLC = tested on: EKVX NSCLC
HCC-2998 colon = tested on: HCC-2998 colon
HCT-116 colon = tested on: HCT-116 colon
HCT-15 colon = tested on: HCT-15 colon
HL-60(TB) leukemia = tested on: HL-60(TB) leukemia
HOP-62 NSCLC = tested on: HOP-62 NSCLC
HOP-92 NSCLC = tested on: HOP-92 NSCLC
HS 578T breast = tested on: HS 578T breast
HT29 colon = tested on: HT29 colon
IGROV1 ovarian = tested on: IGROV1 ovarian
K-562 leukemia = tested on: K-562 leukemia
KM12 colon = tested on: KM12 colon
LOX IMVI melanoma = tested on: LOX IMVI melanoma
M14 melanoma = tested on: M14 melanoma
MALME-3M melanoma = tested on: MALME-3M melanoma
MCF7 breast = tested on: MCF7 breast
MDA-MB-231 breast = tested on: MDA-MB-231 breast
MDA-MB-435 = tested on: MDA-MB-435
MDA-N = tested on: MDA-N
MOLT-4 leukemia = tested on: MOLT-4 leukemia
NCI-H226 lung = tested on: NCI-H226 lung
NCI-H23 lung = tested on: NCI-H23 lung
NCI-H460 lung = tested on: NCI-H460 lung
NCI-H522 lung = tested on: NCI-H522 lung
NCI/ADR-RES ovarian = tested on: NCI/ADR-RES ovarian
OVCAR-3 ovarian = tested on: OVCAR-3 ovarian
OVCAR-4 ovarian = tested on: OVCAR-4 ovarian
OVCAR-5 ovarian = tested on: OVCAR-5 ovarian
OVCAR-8 ovarian = tested on: OVCAR-8 ovarian
PC-3 prostate = tested on: PC-3 prostate
RPMI-8226 leukemia = tested on: RPMI-8226 leukemia
RXF 393 renal = tested on: RXF 393 renal
SF-268 CNS = tested on: SF-268 CNS
SF-295 CNS = tested on: SF-295 CNS
SF-539 CNS = tested on: SF-539 CNS
SK-MEL-2 melanoma = tested on: SK-MEL-2 melanoma
SK-MEL-28 melanoma = tested on: SK-MEL-28 melanoma
SK-MEL-5 melanoma = tested on: SK-MEL-5 melanoma
SK-OV-3 ovarian = tested on: SK-OV-3 ovarian
SN12C renal = tested on: SN12C renal
SNB-19 CNS = tested on: SNB-19 CNS
SNB-75 CNS = tested on: SNB-75 CNS
SR leukemia = tested on: SR leukemia
SW-620 colon = tested on: SW-620 colon
T-47D breast = tested on: T-47D breast
TK-10 renal = tested on: TK-10 renal
U251 CNS = tested on: U251 CNS
UACC-257 melanoma = tested on: UACC-257 melanoma
UACC-62 melanoma = tested on: UACC-62 melanoma
UO-31 renal = tested on: UO-31 renal

## COC(=O)C1=C(C)NC(C)=C(C(=O)OC)C1c1ccc(NO)cc1
786-0 renal
  TGI: 28.9 µM
A498 renal
  TGI: 93.8 µM
A549 NSCLC
  TGI: 43.5 µM
ACHN renal
  TGI: 25.8 µM
BT-549 breast
  TGI: 26.5 µM
CAKI-1 renal
  TGI: 29.1 µM
CCRF-CEM leukemia
  TGI: > 27.3 µM
COLO 205 colon
  TGI: 29.2 µM
DU-145 prostate
  TGI: 35.8 µM
EKVX NSCLC
  TGI: 47.4 µM
HCC-2998 colon
  TGI: 35.1 µM
HCT-116 colon
  TGI: 21.8 µM
HCT-15 colon
  TGI: 26.5 µM
HL-60(TB) leukemia
  TGI: > 20.2 µM
HOP-62 NSCLC
  TGI: 32.9 µM
HOP-92 NSCLC
  TGI: 12.7 µM
HS 578T breast
  TGI: 47.3 µM
HT29 colon
  TGI: 29.8 µM
IGROV1 ovarian
  TGI: 30.9 µM
K-562 leukemia
  TGI: 8.07 µM
KM12 colon
  TGI: 31.6 µM
LOX IMVI melanoma
  TGI: 12.9 µM
M14 melanoma
  TGI: 27.9 µM
MALME-3M melanoma
  TGI: 25.8 µM
MCF7 breast
  TGI: 19.2 µM
MDA-MB-231 breast
  TGI: 26.6 µM
MDA-MB-435
  TGI: 28.7 µM
MDA-N
  TGI: 24.7 µM
MOLT-4 leukemia
  TGI: > 22.4 µM
NCI-H226 lung
  TGI: 47.1 µM
NCI-H23 lung
  TGI: 49.8 µM
NCI-H460 lung
  TGI: 33.9 µM
NCI-H522 lung
  TGI: 12.2 µM
NCI/ADR-RES ovarian
  TGI: 48.5 µM
OVCAR-3 ovarian
  TGI: 26.7 µM
OVCAR-4 ovarian
  TGI: 25 µM
OVCAR-5 ovarian
  TGI: 29.8 µM
OVCAR-8 ovarian
  TGI: 24.7 µM
PC-3 prostate
  TGI: 26.3 µM
RPMI-8226 leukemia
  TGI: 16.4 µM
RXF 393 renal
  TGI: 36 µM
SF-268 CNS
  TGI: 43.1 µM
SF-295 CNS
  TGI: 33.1 µM
SF-539 CNS
  TGI: 29.6 µM
SK-MEL-2 melanoma
  TGI: 34.2 µM
SK-MEL-28 melanoma
  TGI: 34.1 µM
SK-MEL-5 melanoma
  TGI: 30.1 µM
SK-OV-3 ovarian
  TGI: 50.3 µM
SN12C renal
  TGI: 33.6 µM
SNB-19 CNS
  TGI: > 78.8 µM
SNB-75 CNS
  TGI: 45.8 µM
SR leukemia
  TGI: > 20.4 µM
SW-620 colon
  TGI: 19.8 µM
T-47D breast
  TGI: 32.7 µM
TK-10 renal
  TGI: 30.9 µM
U251 CNS
  TGI: 29.9 µM
UACC-257 melanoma
  TGI: 15.7 µM
UACC-62 melanoma
  TGI: 26.8 µM
UO-31 renal
  TGI: 23.5 µM

Reference: PubChem BioAssay (NCI)
